From patent US8936941B2, “Compositions useful for cancer detection and treatment, a cancer stem cell model, and methods of production and use thereof” (priority 2008, dated 2015)
Entries after “also recorded” stand apart in the source; their conditions may differ.

What was measured:
let-7a miRNA [1] = experiment: pLet7a-Luc luciferase reporter gene assay in SW480 cells; type: cell-based, human; conditions: normalized to Renilla luciferase
Description: (§1) Luciferase reporter gene assay. pLet7a-Luc reporter vector contains a let-7a miRNA specific binding site at the 3′UTR of the firefly (Photinus pyralis) luciferase gene obtained from Signosis Inc (FIG. 26). HCT116 and SW480 cells were transfected with the pLet7a-Luc reporter vector, Renilla luciferase expressing plasmid pRL-TK (Promega) along with DCAMKL-1 or scrambled siRNA using Transfectol™ (Ambion Inc.). Luciferase activity was determined as per the manufacturer's instructions (Dual-Luciferase Reporter Assay System; Promega) using a Monolight 2010 luminometer (Analytical Luminescence Laboratory, San Diego, Calif.) as described earlier [Stadler et al., 2008; Sossey-Alaoui et al., 1999]. The activity, normalized to Renilla Luciferase activity, is presented as relative luciferase units relative to control with ±SEM values. Assays were performed in triplicate wells and experiments were repeated 3 times.

PICSCs = experiment: LIVE/DEAD Viability/Cytotoxicity Assay on PICSCs; type: cell-based, mouse; conditions: 48 hours, single agent
Description: This Example is directed to stem cell assays utilizing PICSCs generated in accordance with the presently disclosed and claimed inventive concept(s). The PICSCs were generated as described herein above (i.e., transformation of NIH-3T3 cells with RBM3 gene, followed by transplantation into a nude mouse, then sorting of cells obtained from generated tumors utilizing DCAMKL-1).
The PICSCs were exposed to various compounds/anti-cancer agents, and cell viability assays were then performed using the LIVE/DEAD® Viability/Cytotoxicity Assay from Molecular Probes/Invitrogen (Eugene, Oreg.). The LIVE/DEAD® Viability/Cytotoxicity Assay is an assay that provides a two-color fluorescence cell viability that is based on the simultaneous determination of both live and dead cells.
Briefly, PICSCs cells were grown in a 96 well microtitre plate ([…], Newton, N.C.) to about 40% confluency and treated with anti-cancer agents/compounds for 48 hours. Subsequently, chromogenic substrates Calcein AM and Ethidium homodimer-1 (EthD-1) was added to the cells. Calcein AM is well retained within the live cells, producing uniform green fluorescence in live cells (measured at 515 nM). EthD-1 enters cells with damaged membranes and undergoes an enhancement of fluorescence upon binding to nucleic acids, thereby producing a bright red fluorescence in dead cells (measured at 617 nM). The fluorescence measurement was carried out using a microtitre plate reader (Synergy HT, BIO-TEK, Vinooski, Vt.).
In FIGS. 70-84, the PICSCs were treated with increasing concentrations of various compounds or combinations of compounds for 48 hours, and the data presented therein is represented as a % Dead/Live cells ratio following said treatment. […] Values in each figure are given as average±Standard Error Mean, and asterisks denote statistically significant differences (*p<0.01) compared with control.

HCT116 tumor xenografts = experiment: HCT116 tumor xenograft model in athymic nude mice, intratumoral treatment; type: in vivo
Excerpt: Real-time reverse transcription-PCR analyses. Total RNA isolated either from cells or from human colon cancer cell tumor xenograft samples was subjected to reverse transcription with Superscript™ II RNase H—Reverse Transcriptase and random hexanucleotide primers (Invitrogen, Carlsbad, Calif.). The cDNA was subsequently used to perform Real-time PCR by SYBR chemistry (SYBR® Green I; Molecular Probes) for specific transcripts using gene specific primers and Jumpstart Taq DNA polymerase (Sigma-Aldrich, St. Louis, Mo.). […] The changes in mRNA were expressed as fold change relative to control with ±SEM value.
miRNA analysis. Total miRNA was isolated using mirVana™ miRNA isolation kit (Ambion Inc.). Total miRNA isolated either from cells or from human colon cancer cell tumor xenograft samples were subjected to reverse transcription with Superscript™ II RNase H—Reverse Transcriptase and random hexanucleotide primers (Invitrogen, Carlsbad, Calif.). The cDNA was subsequently used to perform Real-time PCR by SYBR chemistry (SYBR® Green I; Molecular Probes) for pri-let-7a transcript using specific primers and Jumpstart Taq DNA polymerase (Sigma-Aldrich, St. Louis, Mo.). […] The changes in pri-miRNA were expressed as fold change relative to control with ±SEM value. Primers used are: […]
Western Blot analysis. HCT116 and SW480 cells were cultured in a 6 well plates to 40% confluency and were transfected with si-DCAMKL-1 or si-Scr for 72 h. Cells or the tumor xenograft samples were lysed and the concentration of protein was determined by BCA protein assay kit (Pierce Biotechnology Inc., Rockford, Ill.). […] The membrane was blocked in 5% non-fat dry milk for 1 h and probed overnight with a rabbit anti-DCAMKL-1 antibody (Abcam Inc., Cambridge, Mass.) or with rabbit anti-c-Myc antibody (Santa Cruz). Subsequently, the membrane was incubated with anti-rabbit or anti-goat IgG horseradish peroxidase-conjugated antibodies (Amersham-Pharmacia) for 1 h at room temperature. The 82 kDa DCAMKL-1 and 49 kDa c-Myc proteins were detected using ECL™ Western Blotting detection reagents (Amersham-Pharmacia). Actin (43 kDa), used as loading control was identified using a goat polyclonal IgG (Santa Cruz Biotechnology Inc., Santa Cruz, Calif.).
Immunohistochemistry. Heat Induced Epitope Retrieval was performed on 4 μm formalin-fixed paraffin-embedded sections utilizing a pressurized Decloaking Chamber (Biocare Medical) in citrate buffer (pH 6.0) at 99° C. for 18 min. (a) Brightfield: Slides were incubated in 3% hydrogen peroxide, then normal serum and BSA at room temperature for 20 min. After incubation with primary antibody [DCAMKL-1 C-terminal (Abcam), anti-c-Myc (Santa Cruz Biotechnologies), L-FABP (Santa Cruz Biotechnologies)], the slides were incubated in peroxidase-conjugated EnVision™+polymer detection kit (DAKO). Slides were developed with Diaminobenzidine (Sigma). (b) Fluorescence: Slides were first incubated in Image-iT FX signal enhancer (Invitrogen), followed by normal serum and BSA at room temperature for 20 min.
Xenograft tumor model. (a) Liposomal preparation: siRNA was administered into the xenografts after incorporation into 1,2-Dioleoyl-sn-Glycero-3-Phosphocholine (DOPC) (Avanti Polar Lipids, Alabaster, Ala.). DOPC and siRNA were mixed in the presence of excess tertiary butanol at a ratio of 1:10 (w/w) (siRNA/DOPC). Tween 20 (Sigma-Aldrich) was added to the mixture at a ratio of 1:19 Tween 20:siRNA/DOPC. The mixture was vortexed and frozen in an acetone/dry ice bath and lyophilized. Before administration, the siRNA preparation was reconstituted in 0.9% sterile saline and injected at a dose of 50 μl (5 μM) per injection. (b) Tumor therapy: Female athymic nude mice (NCr-nu) were purchased from the National Cancer Institute-Frederick Cancer Research and Development Center (Frederick, Md.) and housed in specific pathogen-free conditions.

let-7a miRNA [2] = experiment: pLet7a-Luc luciferase reporter gene assay in HCT116 cells; type: cell-based, human; conditions: normalized to Renilla luciferase
Description: as §1

[3] = real-time RT-PCR, compared to control and si-Scr treated tumors

Substance: si-DCAMKL-1: siRNA targeting the coding region of DCAMKL-1 (NM_004734), sequence GGGAGUGAGAACAAUCUAC (SEQ ID NO:3) (chemistry not given here; listed as Homo sapiens)
- luciferase activity (let-7a binding site at 3' UTR) (let-7a miRNA [1]): dose dependent reduction
- PICSC cell death (% Dead/Live cells ratio) (PICSCs): increasing levels of PICSC cell death
- DCAMKL-1 protein in tumors (HCT116 tumor xenografts; Western blot): reduced expression
- Notch-1 and cleaved Notch-1 protein in tumors (HCT116 tumor xenografts; Western blot analysis): marked reduction
- c-Myc protein in tumors (HCT116 tumor xenografts; Western blot and immunohistochemical analyses): striking reduction
- reduction in Notch-1 mRNA in tumors (HCT116 tumor xenografts; compared to controls): 55%
- reduction in c-Myc mRNA in tumors (HCT116 tumor xenografts; compared to controls): 45%
- downregulation of DCAMKL-1 mRNA expression in tumors (HCT116 tumor xenografts; [3]): 55%
- increase in pri-let-7a miRNA expression in tumors (HCT116 tumor xenografts; [3]): > 3 fold
- tumor size / xenograft growth (HCT116 tumor xenografts; siRNA in liposome preparation injected into tumors from day 15, every third day, 5 doses): statistically significant reduction; also recorded: near complete tumor growth arrest
- tumor weight (HCT116 tumor xenografts; tumors excised at day 28, after 5 injections): significantly decreased
- luciferase activity (let-7a binding site at 3' UTR) (let-7a miRNA [2]): dose dependent reduction
